Source: patent US11998606B2, “Compounds and methods for selective proteolysis of glucocorticoid receptors” (Board of Regents, The University of Texas System, priority 2018, dated 2024)
Where “and” joins values, the source holds several entries; their conditions need not be identical. Identical values can stand only once. Like-named read-outs stand apart in the source and are kept apart here.

Key:
PC3 cells = assay: PC3 cell line clonogenic (colony formation) assay; format: cell-based; details: 3.3 μM or 10 μM, 10-14 days, versus DMSO control
Description: PC3 cells are routinely maintained in RPMI 1640 media. Cell growth is determined using crystal violet staining. Cells are initially seeded at density of 1000 to 2000 cells per well in 6-well plates. 24 hours post-seeding, cells are treated with DMSO control, enzalutamide, RU-486 or various GR degraders at 3.3 μM or 10 μM concentration. Cells are allowed to grow under regular growth conditions for 10-14 days. Cells are then fixed with 80% MeOH and stained with crystal violet solution (0.05%) overnight. Plates are then washed in water, dried and scanned.

DU145 cells = assay: DU145 cell line proliferation assay (Incucyte confluency); format: cell-based; details: 1 μM, 3.3 μM or 10 μM, 5 days, versus DMSO control
Description: DU145 cells are routinely maintained in RPMI 1640 media. Proliferation is determined using a real time cell imaging device, Incucyte. Cells are initially seeded at density of 2000 cells per well in 96-well plates. 24 hours post-seeding, cells are treated with DMSO control or GR degraders at 1 μM, 3.3 μM or 10 μM concentration. Cells are allowed to grow under regular growth conditions for 5 days while being monitored and imaged every four hours by Incucyte. Confluency of cells, a surrogate for proliferation, is calculated and plotted.

[1] = Single dose intraperitoneal pharmacokinetics in CD-1 mice, plasma concentration by HPLC-MS; format: in vivo; details: 10 mg/kg IP
[2] = test system: TRAMP-C1 prostate cancer cells; assay: In vivo anti-tumor efficacy, TRAMP-C1 tumors in immunocompetent mice; set-up: species or system male C57/Bl6 mice; details: C57/Bl6 mice, Example 3 100 mg/kg + anti-PD1 antibody 200 μg IP once daily, 7 days
Description: TRAMP-C1 cells (5×10^6) were injected into the flanks of male C57/Bl6 mice. Tumor take was monitored visually and by palpation bi-weekly. Once tumors reached 200 mm^3 mice were randomized into control and different treatment groups for 7 days. Treatment cohorts are as follows: • a. Vehicle is 5% Cremophor: 5% Ethanol in saline, (n=10 animals) • b. GR degrader Example #3 (100 mg/kg) IP once daily in 5% Cremophor: 5% Ethanol in saline (n=10 animals) • c. Anti-PD1 antibody, clone RMP1-14 (200 μg) IP once daily in 5% Cremophor: 5% Ethanol in saline (n=10 animals) • d. GR degrader Example #3 (100 mg/kg)+Anti-PD1 antibody (200 μg) IP once daily in 5% Cremophor: 5% Ethanol in saline (n=10 animals)
Tumor diameter and volume were calculated based on caliper measurements of tumor length and […] using the formula tumor volume=(length×width^2)/2. Tumor volume and body weight were measured three times.

[3] = Single dose intraperitoneal pharmacokinetics in CD-1 mice, plasma concentration by HPLC-MS; format: in vivo
Description: The intraperitoneal bioavailability was determined in the following study: three CD-1 female mice were dosed by intraperitoneal injection (10 mg/kg) and plasma collected at the following hourly time points (0.083, 0.25, 0.5, 1, 2, […] and 24h). Plasma concentration was determined by HPLC-MS.
Table 1 illustrates pharmacokinetic properties of the Example 3 compound in CD-1 mice (n=3) after a single intraperitoneal dose of 10 mg/kg.

[4] = test system: VCaP prostate cancer cells; assay: In vivo anti-tumor efficacy, VCaP castration resistant prostate cancer xenograft model; set-up: species or system Male CB17 SCID Mice; details: castrated CB17 SCID mice, Example 3 100 mg/kg + enzalutamide 10 mg/kg IP once daily
Description: 1×10^7 VCaP cells were injected into the flanks of male CB17 SCID Mice. Tumor take was monitored visually and by palpation bi-weekly. Once tumors reached 200 mm^3 mice were castrated. Once tumors stopped shrinking, mice were randomized into control and different treatment groups for 26 days. Treatment cohorts are as follows: • a. Vehicle is 5% Cremophor: 5% Ethanol in saline, (n=10 animals) • b. GR degrader example #3 (100 mg/kg) IP once daily in 5% Cremophor: 5% Ethanol in saline (n=10 animals) • c. Enzalutamide (10 mg/kg) IP once daily in 5% Cremophor: 5% Ethanol in saline (n=10 animals) • d. GR degrader example #3 (100 mg/kg)+Enzalutamide (10 mg/kg) IP once daily in 5% Cremophor: 5% Ethanol in saline (n=10 animals)
Tumor diameter and volume were calculated based on caliper measurements of tumor length and […] using the formula tumor volume=(length×width^2)/2. Tumor volume and body weight were measured three times a week.

[5] = female, mouse, ip, CD-1 mice (n=3), single intraperitoneal dose of 10 mg/kg

## CNC(=O)c1ccc(N2C(=S)N(c3ccc(C#N)c(C(F)(F)F)c3)C(=O)C2(C)C)cc1F [enzalutamide, reference compound]
PC3 cells
  Colony formation (crystal violet staining): did not differ significantly from control
DU145 cells
  Proliferation (confluency): did not differ significantly from control

## CC#C[C@]1(O)CC[C@H]2[C@@H]3CCC4=CC(=O)CCC4=C3[C@@H](c3ccc(N(C)CCCC(=O)N4CCN(C(=O)OC(C)(C)C)CC4C(=O)N4CCN(C(=O)OC(C)(C)C)CC4C(=O)NCCCOCCOCCOCCCNc4cccc5c4C(=O)N(C4CCC(=O)NC4=O)C5=O)cc3)C[C@@]21C (stereo partly drawn) [Example 3, tert-Butyl-4-(4-(tert-butoxycarbonyl)-1-(4-((4-((8S,11R,13S,14S,17S)-17-hydroxy-13-methyl-3-oxo-17-(prop-1-yn-1-yl)-2,3,6,7,8,11,12,13,14,15,16,17-dodecahydro-1H-cyclopenta[a]phenanthren-11-yl)phenyl)(methyl)amino)butanoyl)piperazine-2-carbonyl)-3-((3-(2-(2-(3-((2-(2,6-dioxopiperidin-3-yl)-1,3-dioxoisoindolin-4-yl)amino)-propoxy)ethoxy)ethoxy)propyl)carbamoyl)piperazine-1-carboxylate]
[1]; 4 hr, individual animals, read-out: Individual concentration
  concentration at 8 h: 3220 nM and 3210 nM
[1]; 8 hr, individual animals, read-out: Individual concentration
  concentration at 8 h: 2980 nM and 2610 nM
[1]; female, CD-1, mouse, ip, 10 mg/kg, 8 hr, individual animals, read-out: Individual concentration
  concentration at 8 h: 2900 nM
[1]; female, CD-1, mouse, ip, 10 mg/kg, 8 hr, n=3, read-out: Mean concentration
  concentration at 8 h: 2830 nM
PC3 cells
  Colony formation (crystal violet staining): inhibited colony formation
[2]
  Tumor growth, combination with anti-PD1 antibody: synergizes with anti-PD1 antibody to inhibit growth of prostate cancer
DU145 cells
  Proliferation (confluency): displays efficacy against DU145 cancer cells
[3]; 0.083 hr, 10 mg/kg IP, CD-1 mice, individual animals, 10 mg/kg, read-out: Individual concentration
  concentration at 0.5 h: 72.2 nM and 135 nM
[3]; 0.25 hr, 10 mg/kg IP, CD-1 mice, individual animals, 10 mg/kg, read-out: Individual concentration
  concentration at 0.5 h: 283 nM and 93 nM and 173 nM
[3]; 0.5 hr, 10 mg/kg IP, CD-1 mice, individual animals, 10 mg/kg, read-out: Individual concentration
  concentration at 0.5 h: 652 nM and 939 nM
[3]; 1 hr, 10 mg/kg IP, CD-1 mice, individual animals, 10 mg/kg, read-out: Individual concentration
  concentration at 0.5 h: 1010 nM and 147 nM and 358 nM
[3]; 2 hr, 10 mg/kg IP, CD-1 mice, individual animals, 10 mg/kg, read-out: Individual concentration
  concentration at 0.5 h: 1480 nM and 2870 nM
[3]; 24 hr, 10 mg/kg IP, CD-1 mice, individual animals, 10 mg/kg, read-out: Individual concentration
  concentration at 0.5 h: 505 nM and 617 nM
[3]; female, CD-1, mouse, ip, 10 mg/kg, 0.083 hr, 10 mg/kg IP, CD-1 mice, individual animals, read-out: Individual concentration
  concentration at 0.083 h: 114 nM
[3]; female, CD-1, mouse, ip, 10 mg/kg, 0.083 hr, 10 mg/kg IP, CD-1 mice, n=3, read-out: Mean concentration
  concentration at 0.083 h: 107 nM
[3]; female, CD-1, mouse, ip, 10 mg/kg, 0.25 hr, 10 mg/kg IP, CD-1 mice, n=3
  concentration at 0.25 h: 183 nM
[3]; female, CD-1, mouse, ip, 10 mg/kg, 0.5 hr, 10 mg/kg IP, CD-1 mice, individual animals, read-out: Individual concentration
  concentration at 0.5 h: 727 nM
[3]; female, CD-1, mouse, ip, 10 mg/kg, 0.5 hr, 10 mg/kg IP, CD-1 mice, n=3, read-out: Mean concentration
  concentration at 0.5 h: 773 nM
[3]; female, CD-1, mouse, ip, 10 mg/kg, 1 hr, 10 mg/kg IP, CD-1 mice, n=3
  concentration at 1 h: 505 nM
[3]; female, CD-1, mouse, ip, 10 mg/kg, 2 hr, 10 mg/kg IP, CD-1 mice, individual animals, read-out: Individual concentration
  concentration at 2 h: 2240 nM
[3]; female, CD-1, mouse, ip, 10 mg/kg, 2 hr, 10 mg/kg IP, CD-1 mice, n=3, read-out: Mean concentration
  concentration at 2 h: 2200 nM
[3]; female, CD-1, mouse, ip, 10 mg/kg, 10 mg/kg IP, CD-1 mice, individual animals, read-out: Individual concentration
  concentration at 4 h: 3300 nM
[3]; female, CD-1, mouse, ip, 10 mg/kg, 10 mg/kg IP, CD-1 mice, n=3, read-out: Mean concentration
  concentration at 4 h: 3240 nM
[3]; female, CD-1, mouse, ip, 10 mg/kg, 24 hr, 10 mg/kg IP, CD-1 mice, individual animals, read-out: Individual concentration
  concentration at 24 h: 440 nM
[3]; female, CD-1, mouse, ip, 10 mg/kg, 24 hr, 10 mg/kg IP, CD-1 mice, n=3, read-out: Mean concentration
  concentration at 24 h: 521 nM
[3]; [5]
  AUC(0-t): 46.2 µM·h
  Cmax: 3240 nM
  Tmax: 4 h
[4]
  Xenograft tumor growth, combination with enzalutamide: synergizes with enzalutamide to inhibit growth of prostate cancer
